# Measured values as given in patent publication US20240209028A1, “CNP COMPOUNDS” (priority 2022, published 2024).
# Starred links: 1 amine or outer side, 2 acyl side, 3 side chain; linkers in the order of their positions; H or OH if unused. Positions of bridges follow the written chain, without caps; N, C: chain ends. Residues, ends and D or L forms follow the SMILES beside them. *: point of attachment. C18 diacid = O=C(O)CCCCCCCCCCCCCCCCC(=O)*; γGlu = O=C(O)[C@H](CCC(=O)[*:2])N[*:1]
# Experiments:
# [1] = biological target: neprilysin (NEP) (Homo sapiens, UniProt P08473); test: In vitro neprilysin stability; conditions: recombinant human neprilysin (rhNEP), pH 7.4
# Sequence of neprilysin (NEP) (P08473 whole entry, the tested form may be a part): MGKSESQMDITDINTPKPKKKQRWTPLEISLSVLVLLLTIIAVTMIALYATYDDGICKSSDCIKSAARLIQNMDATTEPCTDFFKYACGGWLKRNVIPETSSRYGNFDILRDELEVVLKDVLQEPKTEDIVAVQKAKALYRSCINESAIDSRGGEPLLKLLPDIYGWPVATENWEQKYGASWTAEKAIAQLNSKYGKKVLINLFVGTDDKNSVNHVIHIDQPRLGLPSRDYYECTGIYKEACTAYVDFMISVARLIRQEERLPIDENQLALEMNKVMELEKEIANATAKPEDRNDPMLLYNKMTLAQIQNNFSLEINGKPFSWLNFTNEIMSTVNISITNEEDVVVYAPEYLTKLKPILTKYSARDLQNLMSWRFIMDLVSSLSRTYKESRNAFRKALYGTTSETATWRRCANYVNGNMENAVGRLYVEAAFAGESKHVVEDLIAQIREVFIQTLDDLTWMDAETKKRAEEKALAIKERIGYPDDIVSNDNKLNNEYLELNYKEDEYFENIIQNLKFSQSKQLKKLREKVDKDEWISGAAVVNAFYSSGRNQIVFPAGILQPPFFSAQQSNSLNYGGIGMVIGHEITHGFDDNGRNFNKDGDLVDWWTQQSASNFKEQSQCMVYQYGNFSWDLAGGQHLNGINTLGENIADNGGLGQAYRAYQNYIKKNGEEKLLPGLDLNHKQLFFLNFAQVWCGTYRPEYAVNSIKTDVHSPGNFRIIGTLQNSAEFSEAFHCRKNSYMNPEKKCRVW
# [2] = Accelerated chemical stability (RP-UPLC recovery and LCMS degradation pattern, 37° C.); format: physicochemical; parameters: Isomers TZ / Isomers 2 W / Loss of 18 amu TZ / Loss of 18 amu 2 W / Fragments TZ / Fragments 2 W / Fragments 1 W / Fragments 3 W / Fragments 4 W / Fragments 5 W / Fragments 6 W / Others 1 W / Others 3 W / Others 4 W / Others 5 W / Others 6 W / Isomers 1 W / Isomers 3 W / Isomers 4 W / Isomers 5 W / Isomers 6 W / Loss of 18 amu 1 W / Loss of 18 amu 3 W / Loss of 18 amu 4 W / Loss of 18 amu 5 W / Loss of 18 amu 6 W: unit not given here; conditions: LCMS, 5 mM sodium acetate, 250 mM glycerol, pH 4
# Procedure: In order to determine the chemical stability of CNP compounds in formulation, samples of CNP compounds in buffer were exposed to accelerated chemical degradation by heating. The stability of a given peptide was assessed by measuring recovery of intact peptide by quantification by RP-UPLC. To assess the chemical degradation pattern samples were also analysed by LC-MS.
# Sample preparation: Samples for the 2 week study were prepared according to the principles described in Example 5.
# Samples for the 6 week study were prepared by dissolving lyophilized peptide in buffer (8 mM phosphate, 250 mM glycerol, pH 7.4) to a nominal peptide concentration of 5000 nmol/ml followed by pH adjustment with 0.1 N HCl to pH 6.5.
# Incubation: For the 2 week study a time-zero (TZ) sample was pulled and stored at −18° C. and the remaining volume was incubated at 37° C. Samples were pulled and stored at −18° C. after 2 weeks of incubation. Frozen samples were thawed, diluted to about 200 nmol/mL and the extent of chemical degradation was determined using LCMS as described.
# For the 6 week study a time-zero (TZ) sample was pulled and stored at −18° C. and the remaining volume was incubated at 37° C. Samples were pulled on a weekly basis and stored at −18° C. until the last sampling time point at 6 weeks. Frozen samples were thawed, diluted to about 200 nmol/mL and the extent of chemical degradation was determined using RP-UPLC and LCMS as described.
# Analysis of peptide recovery by RP-UPLC: The RP-UPLC method was performed on a Waters ACQUITY H-CLASS UPLC system fitted with a PDA detector. Separation was carried out on an ACQUITY UPLC BEH C8 Column (130 Å, 1.7 μm, 2.1 mm×150 mm) operating at a column temperature of 50° C. with eluent A (19.59 mM NH4H2PO4 41.71 mM (NH4)2HPO4, pH 6.5 and MeCN 9:1 v:v) and eluent B (80% MeCN in water). UV-detection was carried out at 214 nm. The analysis was performed by injection of 3 μL of sample onto the column which was eluted with a 1-step linear gradient of eluents A and B from 27 to 30% B over 20 minutes followed by a wash at 95% B over 2 minutes followed by a re-equilibration phase for 7 minutes at a constant flow rate of 0.3 mL/min. This yielded an analysis time of 30 minutes per sample. The area of the peak corresponding to intact CNP compound was given on a percentage scale relative to the total peptide peak area.
# Analysis of chemical degradation patterns by LCMS: Samples were analysed on a […] UPLC from Thermo Scientific, using a Waters Acquity C18 reversed-phase column, 300 Å, […] particles 1 mm×150 mm. The compounds were separated by a linear gradient of solvent B from 5% to 55% over 48 minutes, using solvent A: water, 0.1% formic acid with 0.02% TFA and solvent B: acetonitrile, 0.1% formic acid with 0.02% TFA. Mass spectra were acquired by a Q Exactive Plus hybrid Quadrupole-Orbitrap mass spectrometer, BioPharma option (Thermo Scientific) interfaced with H-ESI II ion source. Data acquisitions were performed with a m/z 500 to 2000 scan range and a resolution of 30000.
# The data list was aggregated into a summed table of the compounds. The table headers were defined as follows: […]
# Results: The results from LCMS analysis of a 2 week accelerated degradation study on several CNP compounds of the present invention are summarised in Table 12. The results from RP-UPLC and LCMS analysis of a 6 week accelerated degradation study on CNP compound 9482 (Chem. 137) is summarised in Table 13 and Table 14 respectively.
# [3] = PK after i.v. and s.c. administration to Göttingen minipig; conditions: female, Göttingen, minipig, in vivo
# Procedure: The purpose of this study was to investigate pharmacokinetic and pharmacodynamic properties after intravenous (i.v.) and subcutaneous (s.c.) administration to Gottingen Minipig and domestic LYD pig, and to estimate bioavailability after s.c. dosing. Quantitative plasma analysis of CNP and cGMP levels were performed as described in
# Animals and dosing: The pharmacokinetic and pharmacodynamic studies in Gottingen Minipig or domestic LYD pig were conducted at CRO Minerva Imaging or Novo Nordisk A/S, respectively. CNP compounds were dosed to normal female 1) Gottingen minipigs 6-12 months of age with an average weight of 22 kg or 2) domestic LYD pigs 4-5 months of age with and average weight of 80 kg. At least one week prior to dosing, permanent central venous catheters were implanted for blood sampling and intravenous (i.v.) dosing. For subcutaneous (s.c.) dosing, the pigs were ultrasound scanned and the optimal injection area laterally on the neck marked by a permanent tattoo. An insulin pen (NovoPen Echo or NovoPen 4) and insulin needle (NovoFine 32G/4 mm or NovoTwist 32G/5 mm) were used for accurate deposition of the CNP formulations in the subcutaneous fat tissue with the needle perpendicular to the skin.
# CNP compounds were formulated according to the principles in General Methods of Preparation—Method G and were either A) 8 mM sodium phosphate, 250 mM glycerol, pH 6.5, B) 5 mM sodium acetate, 250 mM glycerol, pH 4.0, C) 5 mM sodium acetate, 240 mM propylene glycol, pH=4.0, D) 8 mM sodium phosphate, 250 mM glycerol, pH 7.5 or E) 20 mM sodium phosphate, 223 mM propylene glycol, pH 6.0.
# Intravenously, the CNP compounds were dosed at 30-60 nmol/kg to Minipig and 15-43 nmol/kg to domestic pig using formulations A-E. Subcutaneously, the CNP compounds were dosed at 55-62 nmol/kg to Minipig and 20-30 nmol/kg to domestic pig using formulations A-D.
# Sampling: Blood samples of approximately 1 mL were collected pre dose and up to 14 days post dose into EDTA-coated tubes (8 mM) for cGMP and CNP compound analysis by LC-MS. In few instances, cGMP was only analysed up to 48 hours post dose after intravenous dosing in domestic LYD pig. The blood samples were kept on wet ice for maximum 30 minutes until centrifugation for 10 minutes at 4° C. and minimum 1500G, and the plasma samples were stored at −20° C. until analysis.
# Plasma concentration-time profiles were analyzed by non-compartmental PK analysis using Phoenix WinNonlin 8.1, Pharsight Inc., Mountain View, CA, USA. Calculation of the area under the plasma concentration-time curve (AUC) was based on the “linear up log down” method, and uniform weighting was used for estimation of the terminal rate constant (λz). S.c. bioavailability (F) was calculated as the dose-normalized AUC (AUC/dose) after s.c. administration divided by the AUC/dose after i.v. administration. […]
smiles,measurement,setting,value
CC[C@H](C)[C@@H]1NC(=O)[C@H](CCCNC(=N)N)NC(=O)[C@H](CCC(=O)O)NC(=O)[C@H](CC(C)C)NC(=O)[C@@H]2CCCN2C(=O)[C@H](CC(C)C)NC(=O)CNC(=O)[C@H](Cc2ccccc2)NC(=O)[C@@H](NC(=O)CNC(=O)[C@H](CO)NC(=O)[C@H](CO)NC(=O)[C@H](CC(C)C)NC(=O)CNC(=O)[C@H](CCCCN)NC(=O)[C@H](CCCCN)NC(=O)[C@H](CCC(N)=O)NC(=O)[C@H](C)NC(=O)CNC(=O)[C@H](CCCCN)NC(=O)[C@H](Cc2ccc(O)cc2)NC(=O)[C@H](CCCCN)NC(=O)[C@H](CCCNC(=N)N)NC(=O)[C@H](C)NC(=O)[C@H](CCC(N)=O)NC(=O)[C@@H]2CCCN2C(=O)[C@H](Cc2c[nH]cn2)NC(=O)[C@H](CCC(=O)O)NC(=O)[C@H](CCC(N)=O)NC(=O)CC[C@H](NC(=O)CC[C@H](NC(=O)CC[C@H](NC(=O)CC[C@H](NC(=O)CCCCCCCCCCCCCCCCC(=O)O)C(=O)O)C(=O)O)C(=O)O)C(=O)O)CSSC[C@@H](C(=O)O)NC(=O)CNC(=O)[C@H](CC(C)C)NC(=O)CNC(=O)[C@H](CO)NC(=O)[C@H](CC(C)C)NC(=O)[C@H](CO)NC(=O)CNC1=O [Compound 9483] ({C18 diacid-γGlu-γGlu-γGlu-γGlu}-QEHPQARKYKGAQKKGLSSGCFGLPLERIGSLSGLGC-OH; disulfide 21-37),"remaining at 1.5 h, 1000 nM",[1],106%
same,Fragments 2 W,[2]; 2 weeks at 37° C.,0
same,Isomers 2 W,[2]; 2 weeks at 37° C.,0
same,Loss of 18 amu 2 W,[2]; 2 weeks at 37° C.,0
same,Others 2 W,[2]; 2 weeks at 37° C.,0.6%
same,Fragments TZ,[2]; time zero,0
same,Isomers TZ,[2]; time zero,0
same,Loss of 18 amu TZ,[2]; time zero,0
same,Others TZ,[2]; time zero,0.2%
same,clearance,[3]; iv,1.04 mL/h/kg
same,half-life,[3]; iv,88 h
same,bioavailability,[3]; sc,44%
same,half-life,[3]; sc,75 h
